Tests used:
Set-up in all cases: key: 0: normal development; 1: Less damaged; 2: Slightly damaged; 3: Moderately damaged; 4: Severely damaged; 5: All killed
corn [1] = test: Soil treatment test for upland field; format: in vivo; settings: 500 g/ha, glass house 25° C., 3 weeks
In short: (§1)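 Pre-emergence: seeds sown in Ube alluvial soil in pots, then soil surface sprayed with wettable-powder formulation diluted in water with 0.05% surfactant at 500 g/ha. Plants kept in glasshouse at average 25° C for 3 weeks; injury scored 0 (normal) to 5 (all killed).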

cotton [2] = test: Soil treatment test for upland field; format: in vivo; settings: 500 g/ha, glass house 25° C., 3 weeks
In short: as §1

solgum [3] = test: Soil treatment test for upland field; format: in vivo; settings: 500 g/ha, glass house 25° C., 3 weeks
In short: as §1

soybean [4] = test: Soil treatment test for upland field; format: in vivo; settings: 500 g/ha, glass house 25° C., 3 weeks
In short: as §1

sugar beat [5] = test: Soil treatment test for upland field; format: in vivo; settings: 500 g/ha, glass house 25° C., 3 weeks
In short: as §1

wheat [6] = test: Soil treatment test for upland field; format: in vivo; settings: 500 g/ha, glass house 25° C., 3 weeks
In short: as §1

Large crabgrass [7] = test: Soil treatment test for upland field; format: in vivo, Digitaria adscendens; settings: 500 g/ha, glass house 25° C., 3 weeks
In short: as §1

barnyardgrass [8] = test: Soil treatment test for upland field; format: in vivo, Echinochloa crusgalli; settings: 500 g/ha, glass house 25° C., 3 weeks
In short: as §1

green foxtail [9] = test: Soil treatment test for upland field; format: in vivo, Setaria viridis; settings: 500 g/ha, glass house 25° C., 3 weeks
In short: as §1

blackgrass [10] = test: Soil treatment test for upland field; format: in vivo, Alopecurus aegualis; settings: 500 g/ha, glass house 25° C., 3 weeks
In short: as §1

annual bluegrass [11] = test: Soil treatment test for upland field; format: in vivo, Poa annua; settings: 500 g/ha, glass house 25° C., 3 weeks
In short: as §1

common lambsquartes [12] = test: Soil treatment test for upland field; format: in vivo, Chenopodium album; settings: 500 g/ha, glass house 25° C., 3 weeks
In short: as §1

livid amaranth [13] = test: Soil treatment test for upland field; format: in vivo, Amaranthus lividus; settings: 500 g/ha, glass house 25° C., 3 weeks
In short: as §1

velvetleaf [14] = test: Soil treatment test for upland field; format: in vivo, Abutilon theophrasti; settings: 500 g/ha, glass house 25° C., 3 weeks
In short: as §1

corn [15] = test: Foliar spread test for upland field; format: in vivo; settings: foliar spray 500 ppm, 3 weeks, rank vs non-treated
In short: (§2)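 Crop seeds sown in volcanic ash soil in Wagner pots were raised about 2 weeks in a glasshouse, then sprayed with wettable-powder formulations diluted to 500 ppm in water with 0.5% surfactant. After 3 weeks at an average 25° C., injury was scored 0 (normal) to 5 (all killed).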

cotton [16] = test: Foliar spread test for upland field; format: in vivo; settings: foliar spray 500 ppm, 3 weeks, rank vs non-treated
In short: as §2

solgum [17] = test: Foliar spread test for upland field; format: in vivo; settings: foliar spray 500 ppm, 3 weeks, rank vs non-treated
In short: as §2

soybean [18] = test: Foliar spread test for upland field; format: in vivo; settings: foliar spray 500 ppm, 3 weeks, rank vs non-treated
In short: as §2

sugar beat [19] = test: Foliar spread test for upland field; format: in vivo; settings: foliar spray 500 ppm, 3 weeks, rank vs non-treated
In short: as §2

wheat [20] = test: Foliar spread test for upland field; format: in vivo; settings: foliar spray 500 ppm, 3 weeks, rank vs non-treated
In short: as §2

Large crabgrass [21] = test: Foliar spread test for upland field; format: in vivo, Digitaria adscendens; settings: foliar spray 500 ppm, 3 weeks, rank vs non-treated
In short: (§3)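 Crops and weeds grown about 2 weeks in volcanic ash soil in a glasshouse, then sprayed with wettable-powder formulations diluted to 500 ppm in water with 0.5% surfactant. After 3 weeks at 25 °C, injury scored visually 0 (normal) to 5 (all killed).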

barnyardgrass [22] = test: Foliar spread test for upland field; format: in vivo, Echinochloa crusgalli; settings: foliar spray 500 ppm, 3 weeks, rank vs non-treated
Excerpt: (§4) (0: normal development, 1: Less damaged, 2: Slightly damaged, 3: Moderately damaged, 4: Severely damaged, 5: All killed).
(§5) Wagner pots, each having an area of 1/5000 are, were packed with volcanic ash soil and then each seed of corn, soybean, cotton, wheat, solgum, sugar beat, Large crabgrass, barnyardgrass, green foxtail, blackgrass, annual bluegrass, common lambsquartes, livid amaranth, velvetleaf and morning glory was planted, covered with soil and grown in a glass house at an average temperature of […] for about 2 weeks.
(§6) Each wettable powder of the desired compounds (I) shown in Table 1 prepared in accordance with Example 2 was diluted to 500 ppm with water containing a surfactant (0.5%) and then uniformly sprayed on the above respective plants.
(§7) After these plants were controlled in a glass house at an average temperature of 25° C. for 3 weeks, the herbicidal effects thereof were investigated.
(§8) The herbicidal effects were evaluated according to the evaluation method described in the above (1).

green foxtail [23] = test: Foliar spread test for upland field; format: in vivo, Setaria viridis; settings: foliar spray 500 ppm, 3 weeks, rank vs non-treated
In short: as §3

blackgrass [24] = test: Foliar spread test for upland field; format: in vivo, Alopecurus aegualis; settings: foliar spray 500 ppm, 3 weeks, rank vs non-treated
Excerpt: as §4, §5, §6, §7, §8

annual bluegrass [25] = test: Foliar spread test for upland field; format: in vivo, Poa annua; settings: foliar spray 500 ppm, 3 weeks, rank vs non-treated
In short: as §3

common lambsquartes [26] = test: Foliar spread test for upland field; format: in vivo, Chenopodium album; settings: foliar spray 500 ppm, 3 weeks, rank vs non-treated
In short: as §3

livid amaranth [27] = test: Foliar spread test for upland field; format: in vivo, Amaranthus lividus; settings: foliar spray 500 ppm, 3 weeks, rank vs non-treated
In short: as §3

velvetleaf [28] = test: Foliar spread test for upland field; format: in vivo, Abutilon theophrasti; settings: foliar spray 500 ppm, 3 weeks, rank vs non-treated
In short: as §3

morning glory = test: Foliar spread test for upland field; format: in vivo, Ipomoea spps.; settings: foliar spray 500 ppm, 3 weeks, rank vs non-treated
In short: as §3

Structure (SMILES) | Effects Corn (corn [1]) | Effects Cotton (cotton [2]) | Effects Solgum (solgum [3]) | Effects Soybean (soybean [4]) | Effects Sugar beat (sugar beat [5]) | Effects Wheat (wheat [6]) | Effects Large crabgrass (Large crabgrass [7]) | Effects Barnyardgrass (barnyardgrass [8]) | Effects Green foxtail (green foxtail [9]) | Effects Blackgrass (blackgrass [10]) | Effects Annual bluegrass (annual bluegrass [11]) | Effects Common lambsquarters (common lambsquartes [12]) | Effects Livid amaranth (livid amaranth [13]) | Effects Corn (corn [15]) | Effects Cotton (cotton [16]) | Effects Solgum (solgum [17]) | Effects Soybean (soybean [18]) | Effects Sugar beat (sugar beat [19]) | Effects Wheat (wheat [20]) | Effects Large crabgrass (Large crabgrass [21]) | further results
CCC(Oc1ccc(F)c(C(F)(F)F)c1)c1nc2ccc(C(F)(F)F)cc2o1 (stereo not shown) [Compound 93] | 1 | 1 | 1 | 2 | 5 | 0 | 5 | 4 | 5 | 3 | 5 | 3 | 5 | 2 | 3 | 1 | 4 | 4 | 2 | 3 | Effects Velvetleaf (velvetleaf [14]): 2; Effects Barnyardgrass (barnyardgrass [22]): 2; Effects Green foxtail (green foxtail [23]): 3; Effects Blackgrass (blackgrass [24]): 1; Effects Annual bluegrass (annual bluegrass [25]): 1; Effects Common lambsquarters (common lambsquartes [26]): 4; Effects Livid amaranth (livid amaranth [27]): 4; Effects Velvetleaf (velvetleaf [28]): 2; Effects Morning glory (morning glory): 3
CCCC(Oc1ccc(F)c(C(F)(F)F)c1)c1nc2ccc(C(F)(F)F)cc2o1 (stereo not shown) [Compound 101] | 0 | 0 | 1 | 0 | 2 | 0 | 5 | 3 | 5 | 3 | 5 | 4 | 5 | 1 | 2 | 1 | 3 | 2 | 1 | 2 | Effects Velvetleaf (velvetleaf [14]): 2; Effects Barnyardgrass (barnyardgrass [22]): 1; Effects Green foxtail (green foxtail [23]): 2; Effects Blackgrass (blackgrass [24]): 1; Effects Annual bluegrass (annual bluegrass [25]): 1; Effects Common lambsquarters (common lambsquartes [26]): 4; Effects Livid amaranth (livid amaranth [27]): 4; Effects Velvetleaf (velvetleaf [28]): 3; Effects Morning glory (morning glory): 3
CCC(Oc1ccc(F)c(C(F)(F)F)c1)c1nc2cc(I)ccc2o1 (stereo not shown) [Compound 171] | 0 | 0 | 1 | 0 | 5 | 1 | 5 | 2 | 5 | 1 | 5 | 2 | 5 | 2 | 4 | 2 | 3 | 3 | 2 | 3 | Effects Barnyardgrass (barnyardgrass [22]): 1; Effects Green foxtail (green foxtail [23]): 5; Effects Blackgrass (blackgrass [24]): 1; Effects Annual bluegrass (annual bluegrass [25]): 3; Effects Common lambsquarters (common lambsquartes [26]): 4; Effects Livid amaranth (livid amaranth [27]): 5; Effects Velvetleaf (velvetleaf [28]): 3; Effects Morning glory (morning glory): 5
CCC(Oc1cccc(OC(F)(F)F)c1)c1nc2cc(Cl)ccc2o1 (stereo not shown) [Compound 447] | 2 | 0 | 1 | 0 | 5 | 1 | 5 | 4 | 5 | 5 | 5 | 3 | 5 | 3 | 4 | 3 | 5 | 5 | 2 | 3 | Effects Velvetleaf (velvetleaf [14]): 2; Effects Barnyardgrass (barnyardgrass [22]): 1; Effects Green foxtail (green foxtail [23]): 2; Effects Blackgrass (blackgrass [24]): 2; Effects Annual bluegrass (annual bluegrass [25]): 2; Effects Common lambsquarters (common lambsquartes [26]): 5; Effects Livid amaranth (livid amaranth [27]): 5; Effects Velvetleaf (velvetleaf [28]): 2; Effects Morning glory (morning glory): 5
